{"source": "paper PMC5513037", "about": "“Examining the influence of specificity ligands and ATP-competitive ligands on the overall effectiveness of bivalent kinase inhibitors” (Proteome Science, 2017)", "assay_in_all_cases": "KAM-matrix competition in K562 lysate;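 for 0.001 uM KAM: median log10 fold change of treatment over DMSO control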;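 for 0.01 uM KAM: median log10 fold change of treatment over DMSO control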;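 for 0.1 uM KAM: median log10 fold change of treatment over DMSO control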;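 for 1 uM KAM: median log10 fold change of treatment over DMSO control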;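 for 10 uM KAM: median log10 fold change of treatment over DMSO control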", "assay_type_in_all_cases": "binding", "key": {"ATR": {"target": "T1, ATR (Homo sapiens, UniProt Q13535)", "T1 construct": "endogenous in cells; host or cells: K562", "T1 sequence (Q13535 whole entry)": "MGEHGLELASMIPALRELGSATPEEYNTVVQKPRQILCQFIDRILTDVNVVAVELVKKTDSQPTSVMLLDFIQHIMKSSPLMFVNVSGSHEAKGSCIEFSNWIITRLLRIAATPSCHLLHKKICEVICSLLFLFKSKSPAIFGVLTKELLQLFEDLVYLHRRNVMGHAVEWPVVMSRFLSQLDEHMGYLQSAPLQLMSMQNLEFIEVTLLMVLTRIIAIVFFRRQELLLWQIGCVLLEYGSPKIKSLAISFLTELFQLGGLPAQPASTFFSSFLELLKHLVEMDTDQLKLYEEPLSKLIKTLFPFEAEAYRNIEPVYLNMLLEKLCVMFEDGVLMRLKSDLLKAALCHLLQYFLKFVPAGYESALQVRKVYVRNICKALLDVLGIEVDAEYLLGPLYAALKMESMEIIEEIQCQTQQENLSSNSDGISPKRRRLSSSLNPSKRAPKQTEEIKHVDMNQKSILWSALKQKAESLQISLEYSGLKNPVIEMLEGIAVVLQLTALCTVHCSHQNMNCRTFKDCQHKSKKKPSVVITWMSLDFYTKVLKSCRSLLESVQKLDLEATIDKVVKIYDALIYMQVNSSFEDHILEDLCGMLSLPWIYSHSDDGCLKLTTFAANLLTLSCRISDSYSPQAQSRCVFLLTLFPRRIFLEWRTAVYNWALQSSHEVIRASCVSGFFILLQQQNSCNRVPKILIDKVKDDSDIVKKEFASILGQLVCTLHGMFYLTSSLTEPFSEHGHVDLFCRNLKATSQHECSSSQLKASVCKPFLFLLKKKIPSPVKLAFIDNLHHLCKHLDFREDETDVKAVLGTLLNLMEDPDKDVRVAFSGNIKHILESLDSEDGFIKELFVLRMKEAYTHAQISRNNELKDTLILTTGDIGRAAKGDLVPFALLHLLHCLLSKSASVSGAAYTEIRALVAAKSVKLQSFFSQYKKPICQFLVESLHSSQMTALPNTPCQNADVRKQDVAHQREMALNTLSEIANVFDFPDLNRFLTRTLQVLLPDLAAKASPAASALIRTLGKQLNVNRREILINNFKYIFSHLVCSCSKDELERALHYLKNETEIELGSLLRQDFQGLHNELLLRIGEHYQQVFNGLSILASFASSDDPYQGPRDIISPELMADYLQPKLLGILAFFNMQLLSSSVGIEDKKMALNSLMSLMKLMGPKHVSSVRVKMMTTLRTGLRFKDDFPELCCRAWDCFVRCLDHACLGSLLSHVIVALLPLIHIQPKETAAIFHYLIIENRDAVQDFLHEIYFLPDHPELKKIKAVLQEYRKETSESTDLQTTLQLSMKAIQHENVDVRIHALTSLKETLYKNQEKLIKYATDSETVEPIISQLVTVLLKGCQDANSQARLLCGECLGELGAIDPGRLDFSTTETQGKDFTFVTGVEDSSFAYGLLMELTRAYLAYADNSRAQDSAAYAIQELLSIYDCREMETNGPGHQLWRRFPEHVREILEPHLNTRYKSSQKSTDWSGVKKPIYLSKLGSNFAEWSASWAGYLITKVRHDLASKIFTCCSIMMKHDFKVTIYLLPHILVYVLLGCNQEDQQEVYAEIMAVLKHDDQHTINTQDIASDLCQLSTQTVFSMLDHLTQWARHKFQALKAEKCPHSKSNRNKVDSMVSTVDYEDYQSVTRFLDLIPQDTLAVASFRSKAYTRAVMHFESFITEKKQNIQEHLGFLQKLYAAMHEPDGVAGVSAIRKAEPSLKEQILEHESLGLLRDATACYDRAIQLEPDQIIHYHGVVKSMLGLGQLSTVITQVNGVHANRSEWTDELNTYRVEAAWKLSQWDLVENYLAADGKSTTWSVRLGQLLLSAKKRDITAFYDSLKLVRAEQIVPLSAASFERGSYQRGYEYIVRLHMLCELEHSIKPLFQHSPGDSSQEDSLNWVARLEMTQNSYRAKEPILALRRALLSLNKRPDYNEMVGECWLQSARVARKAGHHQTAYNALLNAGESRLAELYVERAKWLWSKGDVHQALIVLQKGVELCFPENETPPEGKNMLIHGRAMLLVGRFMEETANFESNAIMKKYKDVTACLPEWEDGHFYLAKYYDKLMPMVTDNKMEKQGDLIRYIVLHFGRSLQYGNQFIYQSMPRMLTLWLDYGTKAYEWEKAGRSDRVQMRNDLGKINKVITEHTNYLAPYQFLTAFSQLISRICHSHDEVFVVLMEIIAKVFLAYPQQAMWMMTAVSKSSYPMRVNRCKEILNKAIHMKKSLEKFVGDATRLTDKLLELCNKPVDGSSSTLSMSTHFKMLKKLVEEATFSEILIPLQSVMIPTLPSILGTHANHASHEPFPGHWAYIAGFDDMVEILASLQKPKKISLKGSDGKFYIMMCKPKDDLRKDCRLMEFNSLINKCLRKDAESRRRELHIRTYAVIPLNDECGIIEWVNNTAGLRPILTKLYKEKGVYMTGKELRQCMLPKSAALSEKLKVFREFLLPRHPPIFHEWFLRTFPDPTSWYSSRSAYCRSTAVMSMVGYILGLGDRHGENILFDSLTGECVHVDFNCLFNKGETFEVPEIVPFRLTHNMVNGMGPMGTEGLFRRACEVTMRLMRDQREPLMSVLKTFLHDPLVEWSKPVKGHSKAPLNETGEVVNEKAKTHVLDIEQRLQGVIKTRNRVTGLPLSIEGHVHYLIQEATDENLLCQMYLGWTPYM", "T1 sequence (Q8WXE1 whole entry partner)": "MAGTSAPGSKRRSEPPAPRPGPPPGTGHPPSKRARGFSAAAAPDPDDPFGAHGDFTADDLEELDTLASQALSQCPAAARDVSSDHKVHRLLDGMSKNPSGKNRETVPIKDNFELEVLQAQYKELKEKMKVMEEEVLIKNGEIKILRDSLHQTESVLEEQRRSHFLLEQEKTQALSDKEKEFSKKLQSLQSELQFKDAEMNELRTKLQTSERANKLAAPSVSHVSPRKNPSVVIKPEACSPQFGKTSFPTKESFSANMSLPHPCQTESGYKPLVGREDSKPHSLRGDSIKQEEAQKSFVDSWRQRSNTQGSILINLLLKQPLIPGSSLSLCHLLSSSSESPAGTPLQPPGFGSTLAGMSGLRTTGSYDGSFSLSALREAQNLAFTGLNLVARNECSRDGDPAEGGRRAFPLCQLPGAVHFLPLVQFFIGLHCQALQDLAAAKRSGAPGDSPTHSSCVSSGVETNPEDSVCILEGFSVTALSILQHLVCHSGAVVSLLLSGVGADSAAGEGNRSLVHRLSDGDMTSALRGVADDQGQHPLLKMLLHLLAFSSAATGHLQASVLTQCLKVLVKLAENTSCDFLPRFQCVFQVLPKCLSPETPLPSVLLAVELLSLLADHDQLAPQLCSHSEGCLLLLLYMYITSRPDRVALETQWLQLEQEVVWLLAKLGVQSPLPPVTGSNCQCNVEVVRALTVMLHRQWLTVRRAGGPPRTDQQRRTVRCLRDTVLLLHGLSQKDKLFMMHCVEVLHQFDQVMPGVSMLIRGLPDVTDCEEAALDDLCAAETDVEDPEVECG", "protocol": "(§1) Supplement 12953_2017_125_MOESM1_ESM.zip/MS_Supp Info.xlsx, sheet \"KAM\" | column: 10 uM KAM; 1 uM KAM; 0.1 uM KAM; 0.01 uM KAM; 0.001 uM KAM; RB50"}, "AURKC": {"target": "T2, AURKC (Homo sapiens, UniProt Q9UQB9)", "T2 construct": "endogenous in cells; host or cells: K562", "T2 sequence (Q9UQB9 1-309)": "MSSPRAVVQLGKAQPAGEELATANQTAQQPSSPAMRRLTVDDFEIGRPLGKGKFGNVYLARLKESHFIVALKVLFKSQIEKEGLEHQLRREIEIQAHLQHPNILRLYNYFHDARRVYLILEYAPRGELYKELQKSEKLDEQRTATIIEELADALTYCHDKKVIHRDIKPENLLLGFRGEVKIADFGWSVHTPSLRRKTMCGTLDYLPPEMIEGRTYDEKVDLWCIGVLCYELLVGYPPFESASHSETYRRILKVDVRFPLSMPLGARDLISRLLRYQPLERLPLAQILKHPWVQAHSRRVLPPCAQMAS", "protocol": "as §1"}, "CDK2": {"target": "T3, CDK2 (Homo sapiens, UniProt P24941)", "T3 construct": "endogenous in cells; host or cells: K562", "protocol": "as §1"}, "MAP3K2": {"target": "T4, MAP3K2 (Homo sapiens, UniProt Q9Y2U5)", "T4 construct": "endogenous in cells; host or cells: K562", "T4 sequence (Q9Y2U5 1-619)": "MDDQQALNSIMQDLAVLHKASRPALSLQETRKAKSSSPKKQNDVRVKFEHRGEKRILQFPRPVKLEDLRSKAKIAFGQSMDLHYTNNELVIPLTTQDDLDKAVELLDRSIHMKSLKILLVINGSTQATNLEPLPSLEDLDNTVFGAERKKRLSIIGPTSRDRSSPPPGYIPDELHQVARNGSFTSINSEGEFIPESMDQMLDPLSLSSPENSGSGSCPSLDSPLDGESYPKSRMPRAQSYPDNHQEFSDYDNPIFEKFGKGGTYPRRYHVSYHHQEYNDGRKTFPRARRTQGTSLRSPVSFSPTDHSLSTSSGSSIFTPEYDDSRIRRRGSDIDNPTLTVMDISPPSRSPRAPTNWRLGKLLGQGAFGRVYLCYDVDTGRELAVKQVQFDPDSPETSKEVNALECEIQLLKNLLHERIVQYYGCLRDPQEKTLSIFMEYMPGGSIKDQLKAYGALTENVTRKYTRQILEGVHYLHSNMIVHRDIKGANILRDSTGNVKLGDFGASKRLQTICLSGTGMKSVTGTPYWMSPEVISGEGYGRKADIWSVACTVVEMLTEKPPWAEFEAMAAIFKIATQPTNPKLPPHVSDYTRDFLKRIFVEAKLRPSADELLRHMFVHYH", "protocol": "as §1"}, "STK38": {"target": "T5, STK38 (Homo sapiens, UniProt Q15208)", "T5 construct": "endogenous in cells; host or cells: K562", "T5 sequence (Q15208 whole entry)": "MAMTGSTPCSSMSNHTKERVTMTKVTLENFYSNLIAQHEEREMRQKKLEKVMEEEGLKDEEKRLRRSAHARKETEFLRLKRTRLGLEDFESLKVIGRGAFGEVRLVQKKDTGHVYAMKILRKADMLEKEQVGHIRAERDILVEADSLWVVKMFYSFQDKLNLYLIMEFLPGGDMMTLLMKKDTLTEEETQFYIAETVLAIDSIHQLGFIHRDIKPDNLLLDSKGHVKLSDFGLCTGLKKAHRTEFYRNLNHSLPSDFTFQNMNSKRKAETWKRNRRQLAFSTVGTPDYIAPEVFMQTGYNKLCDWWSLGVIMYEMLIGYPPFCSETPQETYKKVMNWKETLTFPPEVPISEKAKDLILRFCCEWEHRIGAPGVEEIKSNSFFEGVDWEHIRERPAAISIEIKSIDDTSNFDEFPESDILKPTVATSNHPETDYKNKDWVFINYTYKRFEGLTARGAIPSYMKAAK", "protocol": "as §1"}, "TAOK1": {"target": "T6, TAOK1 (Homo sapiens, UniProt Q7L7X3)", "T6 construct": "endogenous in cells; host or cells: K562 cell lysate", "T6 sequence (Q7L7X3 1-1001)": "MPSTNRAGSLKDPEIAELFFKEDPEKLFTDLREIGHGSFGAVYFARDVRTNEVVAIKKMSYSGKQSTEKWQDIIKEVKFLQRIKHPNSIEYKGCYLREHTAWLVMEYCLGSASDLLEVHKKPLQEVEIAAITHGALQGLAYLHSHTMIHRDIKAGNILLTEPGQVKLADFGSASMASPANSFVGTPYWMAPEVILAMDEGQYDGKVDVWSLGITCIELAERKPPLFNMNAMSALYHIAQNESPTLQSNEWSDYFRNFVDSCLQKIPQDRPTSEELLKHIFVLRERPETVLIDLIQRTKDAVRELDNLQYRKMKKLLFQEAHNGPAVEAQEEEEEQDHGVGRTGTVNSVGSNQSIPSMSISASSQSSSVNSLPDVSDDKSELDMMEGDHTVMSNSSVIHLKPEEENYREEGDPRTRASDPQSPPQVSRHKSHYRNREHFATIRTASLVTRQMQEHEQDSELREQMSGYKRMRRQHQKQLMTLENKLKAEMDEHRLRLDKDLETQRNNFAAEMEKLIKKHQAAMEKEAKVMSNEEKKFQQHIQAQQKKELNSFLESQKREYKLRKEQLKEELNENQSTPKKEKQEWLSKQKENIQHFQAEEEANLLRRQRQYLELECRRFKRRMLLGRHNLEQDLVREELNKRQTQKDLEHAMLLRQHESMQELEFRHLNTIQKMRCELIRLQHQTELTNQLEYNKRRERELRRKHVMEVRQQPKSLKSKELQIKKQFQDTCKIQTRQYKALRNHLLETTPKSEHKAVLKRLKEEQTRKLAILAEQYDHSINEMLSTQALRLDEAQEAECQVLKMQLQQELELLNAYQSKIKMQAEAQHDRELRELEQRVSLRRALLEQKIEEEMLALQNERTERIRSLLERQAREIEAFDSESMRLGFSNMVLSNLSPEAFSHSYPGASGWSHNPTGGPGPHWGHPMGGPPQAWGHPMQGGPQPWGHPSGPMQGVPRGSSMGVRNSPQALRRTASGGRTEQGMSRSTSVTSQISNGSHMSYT", "protocol": "as §1"}, "[1]": {"conditions": "read-out: RB50 (the source's name)"}}, "note": "pIC50: −log10 of the molar value.", "data": [{"smiles": "N#CCc1ccc(Nc2nc(NCCCN)cc(Nc3cc(C4CC4)[nH]n3)n2)cc1", "note": "[KAM]", "values": [{"measurement": "pIC50", "setting": "ATR; KAM 0.001-10 uM, read-out: RB50 (the source's name)", "result": "< 5.00"}, {"measurement": "0.001 uM KAM", "setting": "ATR; relative to 0 uM KAM = 0", "result": -0.04695}, {"measurement": "0.01 uM KAM", "setting": "ATR; relative to 0 uM KAM = 0", "result": 0.002576}, {"measurement": "0.1 uM KAM", "setting": "ATR; relative to 0 uM KAM = 0", "result": -0.08926}, {"measurement": "1 uM KAM", "setting": "ATR; relative to 0 uM KAM = 0", "result": -0.01418}, {"measurement": "10 uM KAM", "setting": "ATR; relative to 0 uM KAM = 0", "result": 0.03196}, {"measurement": "median Log10 fold change", "setting": "AURKC; 0.001 uM KAM", "result": 0.0006126}, {"measurement": "median Log10 fold change", "setting": "AURKC; 0.01 uM KAM", "result": -0.1035}, {"measurement": "median Log10 fold change", "setting": "AURKC; 0.1 uM KAM", "result": -0.4123}, {"measurement": "median Log10 fold change", "setting": "AURKC; 1 uM KAM", "result": -0.4901}, {"measurement": "median Log10 fold change", "setting": "AURKC; 10 uM KAM", "result": -0.3419}, {"measurement": "pIC50", "setting": "AURKC; [1]", "result": 7.12}, {"measurement": "median Log10 fold change", "setting": "CDK2; 0.001 uM KAM", "result": -0.01597}, {"measurement": "median Log10 fold change", "setting": "CDK2; 0.01 uM KAM", "result": -0.009383}, {"measurement": "median Log10 fold change", "setting": "CDK2; 0.1 uM KAM", "result": -0.2687}, {"measurement": "median Log10 fold change", "setting": "CDK2; 1 uM KAM", "result": -0.5288}, {"measurement": "median Log10 fold change", "setting": "CDK2; 10 uM KAM", "result": -0.6805}, {"measurement": "pIC50", "setting": "CDK2; [1]", "result": 6.75}, {"measurement": "median Log10 fold change", "setting": "MAP3K2; 0.001 uM KAM", "result": -0.0298}, {"measurement": "median Log10 fold change", "setting": "MAP3K2; 0.01 uM KAM", "result": 0.004839}, {"measurement": "median Log10 fold change", "setting": "MAP3K2; 0.1 uM KAM", "result": -0.103}, {"measurement": "median Log10 fold change", "setting": "MAP3K2; 1 uM KAM", "result": -0.3096}, {"measurement": "median Log10 fold change", "setting": "MAP3K2; 10 uM KAM", "result": -0.4027}, {"measurement": "pIC50", "setting": "MAP3K2; [1]", "result": 5.88}, {"measurement": "median Log10 fold change", "setting": "STK38; 0.001 uM KAM", "result": -0.121}, {"measurement": "median Log10 fold change", "setting": "STK38; 0.01 uM KAM", "result": -0.04373}, {"measurement": "median Log10 fold change", "setting": "STK38; 0.1 uM KAM", "result": -0.1647}, {"measurement": "median Log10 fold change", "setting": "STK38; 1 uM KAM", "result": -0.3238}, {"measurement": "median Log10 fold change", "setting": "STK38; 10 uM KAM", "result": -0.6242}, {"measurement": "pIC50", "setting": "STK38; [1]", "result": 6.12}, {"measurement": "median Log10 fold change", "setting": "TAOK1; 0.001 uM KAM", "result": 0.00525}, {"measurement": "median Log10 fold change", "setting": "TAOK1; 0.01 uM KAM", "result": 0.00511}, {"measurement": "median Log10 fold change", "setting": "TAOK1; 0.1 uM KAM", "result": -0.09468}, {"measurement": "median Log10 fold change", "setting": "TAOK1; 1 uM KAM", "result": -0.2373}, {"measurement": "median Log10 fold change", "setting": "TAOK1; 10 uM KAM", "result": -0.3152}, {"measurement": "pIC50", "setting": "TAOK1; [1]", "result": 5.38}]}]}
